Data set [1] concerns TMPRSS2-ERG fusion transcript. Description: TMPRSS2-ERG fusion transcript expression (QPCR) in NCI-H660 cells. The protocol: (§1) Fusion status was determined by ERG break-apart FISH assay (Pemer, et al., Cancer Res. 66:8337-8341 (2006)) and QPCR (for cases not assessable by FISH). An aliquot of the RNA used for DASL was used for QPCR. cDNA was synthesized as above. TMPRSS2-ERG fusion product was determined using SYBR green assay (Qiagen) with TMPRSS2-ERG_f and TMPRSS2-ERG_r primers (Tomlins, et al., Science 310:644-648 (2005)). RPL13A was used for normalization. For estrogen experiments, cDNA was synthesized using the Omniscript RT kit (Qiagen) and HMBS was used for normalization. Relative quantitation was carried out using the comparative Ct method.
(§2) The prostate cancer cell lines NCI-H660 and VCaP were maintained according to ATCC instructions. The cells were hormone-deprived by culture for three days in their respective phenol red-free media (for NCI-H660 without E2 and hydrocortisone) supplemented with 5% CDT-FBS (Invitrogen). Cells were challenged with hormones or vehicle for 12, 24 or 48 hours.
(§3) Reagents were used at a final concentration of 10^−8M.

Data set [2] concerns TMPRSS2-ERG fusion transcript. Description: TMPRSS2-ERG fusion transcript expression in ERβ-overexpressing VCaP cells. The protocol: as §1, §2, §3
VCaP cells were transiently transfected with ERβ containing plasmid using Lipofectamine2000 (Invitrogen) for 6 h. Transfection medium was removed after 6 h, cells were washed in PBS twice, and phenol red-free DMEM (Cellgro) supplemented with 5% CDT-FBS (Invitrogen) was added. Cells were challenged with hormones or vehicle 48 hours after transfection. NCI-H660 cells were transiently transfected with smart pool siRNA against ERβ (Dharmacon).

For data set [3], the system named is NCI-H660 prostate cancer cell line. Description: Cell growth assay (Cell Titer-Glo luminescent assay). The note with it: final concentration 10^−8M, relative cell number 2-12 d. Type of data set: cell-based. The protocol: The prostate cancer cell lines NCI-[…] and VCaP were maintained according to ATCC instructions. […] NCI-[…] cells were seeded in a 96-well plate ( 5×10^3 cells/well) and stimulated with hormone or vehicle alone. Relative cell number was determined before (time 0 used for normalization) and after stimulation (2, 3, 6, 8, 10, 12 d) using the Cell Titer-Glo luminescent assay (Promega).

In data set [4] the test system is TMPRSS2-ERG fusion transcript. As to the kind of experiment: TMPRSS2-ERG fusion transcript expression in non-ERβ-overexpressing VCaP cells. The protocol: as §1, §2, §3
Where [5] appears, read: NCI-H660 cells, final concentration 10^−8M, 12, 24 or 48 hours.
[6] abbreviates: ERβ-overexpressing VCaP cells (VCaP-ERβ, ERα negative), final concentration 10^−8M.

“Also recorded” adds a separate entry of the source. Where two headings read alike, the source gives them in different places.

Regarding `C[C@]12CC[C@@H]3c4ccc(O)cc4C[C@@H](CCCCCCCCC[S+]([O-])CCCC(F)(F)C(F)(F)F)[C@H]3[C@@H]1CC[C@@H]2O` (stereo partly drawn) [fulvestrant], the TMPRSS2-ERG expression result in data set [1] (setting [5]) is “reduced the expression of the fusion transcript”.

As to `N#CC(Cc1ccc(O)cc1)c1ccc(O)cc1` (stereo not drawn) [DPN, diarylpropionitrile], the TMPRSS2-ERG expression result in data set [1] (setting [5]) is reported as “suppressed expression of the fusion; also recorded: significantly decreased TMPRSS2-ERG expression”. The “TMPRSS2-ERG fusion transcript expression” value in data set [2] is listed as “down-regulation of the TMPRSS2-ERG fusion transcript”; in data set [4], “down-regulation was not seen”. For the same molecule, the “growth of NCI-H660 cells” value in data set [3] is reported as “suppressed growth”.

Turning to `CCCc1c(-c2ccc(O)cc2)nn(-c2ccc(O)cc2)c1-c1ccc(O)cc1` [PPT, propylpyrazole triol], the TMPRSS2-ERG expression entry in data set [1] is “increased TMPRSS2-ERG expression”.

Take `O=C(c1ccc(OCCN2CCCCC2)cc1)c1c(-c2ccc(O)cc2)sc2cc(O)ccc12` [raloxifene]: the TMPRSS2-ERG expression entry in data set [1] (setting [5]) is listed as “up-regulation of TMPRSS2-ERG”. Moreover, the “TMPRSS2-ERG fusion transcript expression” value in data set [2] (setting [6]) is on record as “remarkable down-regulation of the fusion transcript”.

As to `Oc1ccc(/C=C/c2cc(O)cc(O)c2)cc1` [resveretrol], the TMPRSS2-ERG expression entry in data set [1] was “reduced the expression of the fusion transcript”.

In the case of `C[C@]12CC[C@@H]3c4ccc(O)cc4CC[C@H]3[C@@H]1CC[C@@H]2O` [E2, 17β-estradiol], the “TMPRSS2-ERG fusion transcript expression” value was “down-regulation of the TMPRSS2-ERG fusion transcript” in data set [2] (setting [6]) and “down-regulation was not seen” in data set [4] (non-ERβ-overexpressing VCaP cells, final concentration 10^−8M). In data set [3], the “growth of NCI-H660 cells” value is given as “significantly inhibited”.

(Values after US8106037B2, “Identification and treatment of estrogen responsive prostate tumors” (The Brigham and Women's Hospital, Inc., priority 2007, dated 2012).)
